In ChEMBL document CHEMBL1149449 (Bioorg Med Chem Lett, 2006):

Key:
[1] = system: Human immunodeficiency virus 1; assay: Antiviral activity in cells infected with wild-type HIV1 H93B in presence of NHS; type: functional; details: Human immunodeficiency virus 1, H93B; read-out: CIC95
[2] = system: Human immunodeficiency virus 1; assay: Antiviral activity in cells infected with wild-type HIV1 4X mutant; type: functional; details: Human immunodeficiency virus 1, 4X; read-out: CIC95
[3] = system: Human immunodeficiency virus 1; assay: Antiviral activity in cells infected with wild-type HIV1; type: functional; details: read-out: CIC95
[4] = system: Human immunodeficiency virus 1; assay: Antiviral activity in cells infected with wild-type HIV1 NL4-3 in presence of FBS; type: functional; details: Human immunodeficiency virus 1, NL4-3; read-out: CIC95
[5] = system: Human immunodeficiency virus 1; assay: Antiviral activity in cells infected with wild-type HIV1 H93B in presence of FBS; type: functional; details: Human immunodeficiency virus 1, H93B; read-out: CIC95
[6] = system: Human immunodeficiency virus 1; assay: Antiviral activity in cells infected with wild-type HIV1 NL4-3 in presence of NHS; type: functional; details: Human immunodeficiency virus 1, NL4-3; read-out: CIC95
[7] = biological target: Human immunodeficiency virus type 1 protease (Human immunodeficiency virus 1, UniProt Q72874); assay: Inhibitory activity against isolated wild-type HIV1 protease
[8] = system: Human immunodeficiency virus 1; assay: Antiviral activity in cells infected with wild-type HIV1 1002-60C mutant; type: functional; details: Human immunodeficiency virus 1, 1002-60C; read-out: CIC95
[9] = system: Human immunodeficiency virus 1; assay: Antiviral activity in cells infected with wild-type HIV1 1002-60C mutant in presence of NHS; type: functional; details: Human immunodeficiency virus 1, 1002-60C; read-out: CIC95
[10] = system: Human immunodeficiency virus 1; assay: Antiviral activity in cells infected with wild-type HIV1 4X mutant in presence of NHS; type: functional; details: Human immunodeficiency virus 1, 4X; read-out: CIC95
[11] = system: Human immunodeficiency virus 1; assay: Antiviral activity in cells infected with wild-type HIV1 1026-60C mutant; type: functional; details: Human immunodeficiency virus 1, 1026-60C; read-out: CIC95
[12] = biological target: Human immunodeficiency virus type 1 protease (Human immunodeficiency virus 1) (UniProt Q72874); assay: Ratio of inhibitory effect against HIV1 protease in cellular over isolated enzyme assay; type: functional
[13] = system: Human immunodeficiency virus 1; assay: Antiviral activity in cells infected with wild-type HIV1 1026-60C mutant in presence of NHS; type: functional; details: Human immunodeficiency virus 1, 1026-60C; read-out: CIC95

| SMILES | IC50 [7] | IC95 [1] | IC95 [2] | IC95 [3] | IC95 [4] | IC95 [5] | IC95 [6] | IC95 [8] | IC95 [9] | IC95 [10] | IC95 [11] | Ratio CIC95/IC50 [12] | IC95 [13] |
| --- | --- | --- | --- | --- | --- | --- | --- | --- | --- | --- | --- | --- | --- |
| O=C(N[C@@H](Cc1ccccc1)[C@@H](O)C[C@]1(Cc2ccccc2)N=CC([C@H]2c3ccccc3C[C@H]2O)=C1O)O[C@H]1CCOC1 | 2 nM | 156 nM | 625 nM | 100 nM | 78 nM | 156 nM | 156 nM | 1250 nM | 1250 nM | 1250 nM | 156 nM | 50 | 312 nM |
| NC(=O)C[C@H]1CC(C2=C(O)[C@](Cc3ccccc3)(C[C@H](O)[C@H](Cc3ccccc3)NC(=O)O[C@H]3CCOC3)N=C2)c2ccccc21 (some centres undefined) | – | 1250 nM | 625 nM | 781 nM | 312 nM | 1250 nM | 625 nM | 1250 nM | 2500 nM | 1250 nM | 312 nM | – | 625 nM |
| CC(C)(C)CC(=O)N[C@@H](Cc1ccccc1)[C@@H](O)C[C@]1(Cc2ccccc2)N=CC(C2C[C@H](CC(N)=O)c3ccccc32)=C1O (some centres undefined) | > 250 nM | – | – | 12500 nM | – | – | – | – | – | – | – | – | – |
| O=C1N[C@@H]2c3ccccc3C(C3=C(O)[C@](Cc4ccccc4)(C[C@H](O)[C@H](Cc4ccccc4)NC(=O)O[C@H]4CCOC4)N=C3)C2O1 (some centres undefined) | 0.44 nM | 625 nM | 156 nM | 400 nM | 625 nM | 625 nM | 625 nM | 1250 nM | 1250 nM | 312 nM | 312 nM | 909 | 312 nM |
| CC(C)(C)OC(=O)N[C@@H](Cc1ccccc1)[C@@H](O)C[C@]1(Cc2ccccc2)N=CC(C2c3ccccc3[C@H]3NC(=O)OC23)=C1O (some centres undefined) | 2.5 nM | 312 nM | 2500 nM | 200 nM | 156 nM | 156 nM | 625 nM | 2500 nM | 10000 nM | 5000 nM | 625 nM | 80 | 1250 nM |
| CC(C)(C)NC(=O)[C@@H]1CN(Cc2cccnc2)CCN1C[C@@H](O)C[C@@H](Cc1ccccc1)C(=O)N[C@H]1c2ccccc2C[C@H]1O | – | 25 nM | 100 nM | 25 nM | 50 nM | 50 nM | 50 nM | 400 nM | 400 nM | 100 nM | 400 nM | – | 400 nM |

The next lines start with results.

| IC50 [7] | SMILES | IC95 [1] | IC95 [2] | IC95 [3] | IC95 [4] | IC95 [5] | IC95 [6] | IC95 [8] | IC95 [9] | IC95 [10] | IC95 [11] | Ratio CIC95/IC50 [12] | IC95 [13] |
| --- | --- | --- | --- | --- | --- | --- | --- | --- | --- | --- | --- | --- | --- |
| 96 nM | CC(C)(C)CC(=O)N[C@@H](Cc1ccccc1)[C@@H](O)C[C@]1(Cc2ccccc2)N=CC(C2c3ccccc3[C@H]3NC(=O)OC23)=C1O (some centres undefined) | – | – | 3120 nM | – | – | – | – | – | – | – | 32.5 | – |
| 5.7 nM | O=C(N[C@@H](Cc1ccccc1)[C@@H](O)C[C@]1(Cc2ccccc2)N=CC([C@@H]2CNC(=O)c3ccccc32)=C1O)O[C@H]1CCOC1 | – | – | 781 nM | – | – | – | – | – | – | – | 137 | – |
| 2 nM | NC(=O)O[C@@H]1Cc2ccccc2[C@@H]1C1=C(O)[C@](Cc2ccccc2)(C[C@H](O)[C@H](Cc2ccccc2)NC(=O)O[C@H]2CCOC2)N=C1 | – | – | 250 nM | – | – | – | – | – | – | – | 125 | – |
| 20.5 nM | CC(C)(C)OC(=O)N[C@@H](Cc1ccccc1)[C@@H](O)C[C@]1(Cc2ccccc2)N=CC(C2C[C@H](CC(N)=O)c3ccccc32)=C1O (some centres undefined) | – | – | > 400 nM | – | – | – | – | – | – | – | – | – |
